Assay [1] has as its target T1, Histone deacetylase 1 (Homo sapiens, UniProt Q13547). The assay can be described thus: Inhibition of HDAC1 in human HeLa nuclear extracts incubated for 30 mins by fluorescence based assay. It is filed as cell-free.
For assay [2], the target named is T1, Histone deacetylase 1. In words: Inhibition of HDAC1 in human PC-3 cells assessed as increase in acetylated Histone-H3 level incubated for 24 hrs by Western blotting assay. The note with it: dose 0.08-0.32 µM. It is filed as cell-based.
In assay [3] the test system is PC-3. In words: Induction of apoptosis in human PC-3 cells assessed as viable cells at 0.08 uM incubated for 24 hrs by Annexin V-FITC and PI staining based flow cytometry (reference value: 97.5%). The note with it: read-out: Activity. It is filed as functional.
The subject of assay [4] is PC-3. The assay can be described thus: Induction of apoptosis in human PC-3 cells assessed as necrotic cells at 0.08 uM incubated for 24 hrs by Annexin V-FITC and PI staining based flow cytometry (reference value: 0.13%). Format: functional.
In assay [5] the test system is PC-3. The assay can be described thus: Induction of apoptosis in human PC-3 cells assessed as late apoptotic cells at 0.32 uM incubated for 24 hrs by Annexin V-FITC and PI staining based flow cytometry (reference value: 1.02%). It is filed as functional.

Molecules are shown by their SMILES.

T1 sequence (Q13547 whole entry): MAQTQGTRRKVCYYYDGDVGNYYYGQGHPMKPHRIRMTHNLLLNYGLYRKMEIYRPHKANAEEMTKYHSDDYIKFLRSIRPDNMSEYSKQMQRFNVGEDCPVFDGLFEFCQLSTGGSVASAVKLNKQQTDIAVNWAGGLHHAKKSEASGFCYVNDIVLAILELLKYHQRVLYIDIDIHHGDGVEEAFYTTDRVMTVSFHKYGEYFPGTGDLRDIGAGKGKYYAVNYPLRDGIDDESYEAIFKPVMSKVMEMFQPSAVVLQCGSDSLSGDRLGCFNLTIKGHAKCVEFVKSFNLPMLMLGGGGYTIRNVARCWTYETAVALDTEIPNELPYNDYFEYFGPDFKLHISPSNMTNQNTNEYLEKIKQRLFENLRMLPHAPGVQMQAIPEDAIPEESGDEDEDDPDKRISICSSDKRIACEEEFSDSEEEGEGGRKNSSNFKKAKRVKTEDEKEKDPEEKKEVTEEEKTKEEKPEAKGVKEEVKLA

Turning to `COc1ccc(/C=C/C(=O)c2ccc(OC)c3c2OC(C)(C)C=C3)cc1NCC(=O)NO`, on Histone deacetylase 1 [1], the midpoint of inhibition, the IC50, lay at 730 nM. Moreover, the inhibition result on Histone deacetylase 1 [2] was “Dose-Dependent Effect”. Also, the viability at 0.08 µM with PC-3 [3] is 94.8%. For the same compound, the Activity in the assay on PC-3 [4] was 0.041%; with PC-3 [5] it was 8.39%.

The values above are taken from ChEMBL document CHEMBL5506003, “Design and biological evaluation of dual tubulin/HDAC inhibitors based on millepachine for treatment of prostate cancer” (Eur J Med Chem, 2024).
